Test results from US20240408086A1, “USE OF LUVADAXISTAT FOR THE TREATMENT OF COGNITIVE IMPAIRMENT” (TAKEDA PHARMACEUTICAL COMPANY LIMITED, priority 2021, published 2024).

System: adult patients with persistent negative symptoms of schizophrenia
Type: in vivo, human
Excerpt: To assess changes in cognitive impairment associated with schizophrenia (CIAS), secondary endpoints included the 12-week change from baseline in the Brief Assessment of Cognition in Schizophrenia (BACS) composite score, a measure of cognition across multiple domains, and the Schizophrenia Cognition Rating Scale (SCORS) score, a measure of day-to-day cognitive functioning requiring input from an adult informant. Secondary endpoints were not corrected for multiplicity.
The BACS is specifically designed to measure treatment-related improvements in cognition and includes alternate forms. BACS is a reliable and sensitive measure of cognitive function in schizophrenia. The BACS is a cognition assessment battery that assesses 6 domains of cognitive function found to be consistently impaired in schizophrenia: verbal memory; working memory; motor speed; attention; executive functions; and verbal fluency. The primary measure from each test of the BACS is standardized by creating T-scores whereby the mean of the test session of a matched reference healthy participant is set to 50 and the standard deviation set to 10.

[1] = 50 mg once daily, MMRM, preliminary analysis
[2] = 50 mg once daily, preliminary analysis

SMILES: O=c1[nH]nc(CCc2ccc(C(F)(F)F)cc2)cc1O [Compound (I), luvadaxistat]
- BACS composite score, effect size versus placebo (50 mg once daily, 12 weeks, p=0.031, not corrected for multiplicity): 0.4
- BACS Verbal Memory Cognition Domain, Difference from Placebo for Week 12, LS Mean (SE) (50 mg once daily, MMRM, one-sided unadjusted p 0.038, preliminary analysis): 2.6 (1.43)
- BACS Composite Score, Difference from Placebo for Week 12, LS Mean (SE) (50 mg once daily, MMRM, one-sided unadjusted p 0.046, preliminary analysis): 1.9 (1.15)
- BACS Verbal Memory Cognition Domain, Difference from Placebo for Week 6, LS Mean (SE) (50 mg once daily, MMRM, one-sided unadjusted p 0.071, preliminary analysis): 1.9 (1.29)
- BACS Composite Score, Difference from Placebo for Week 6, LS Mean (SE) (50 mg once daily, MMRM, one-sided unadjusted p 0.096, preliminary analysis): 1.3 (1.01)
- BACS Motor Speed Cognition Domain, Difference from Placebo for Week 12, LS Mean (SE) (50 mg once daily, MMRM, one-sided unadjusted p 0.101, preliminary analysis): 1.5 (1.17)
- BACS Working Memory Cognition Domain, Difference from Placebo for Week 12, LS Mean (SE) (50 mg once daily, MMRM, one-sided unadjusted p 0.413, preliminary analysis): 0.3 (1.34)
- BACS Motor Speed Cognition Domain, Difference from Placebo for Week 6, LS Mean (SE) (50 mg once daily, MMRM, one-sided unadjusted p 0.440, preliminary analysis): 0.2 (1.26)
- BACS Working Memory Cognition Domain, Difference from Placebo for Week 6, LS Mean (SE) (50 mg once daily, MMRM, one-sided unadjusted p 0.507, preliminary analysis): 0.0 (1.15)
- BACS Composite Score, Adjusted Change from Baseline to Week 6, LS Mean (SE) [1]: 0.9 (0.81)
- BACS Composite Score, Adjusted Change from Baseline to Week 12, LS Mean (SE) [1]: 2.7 (0.92)
- BACS Motor Speed Cognition Domain, Adjusted Change from Baseline to Week 6, LS Mean (SE) [1]: 0.1 (1.00)
- BACS Motor Speed Cognition Domain, Adjusted Change from Baseline to Week 12, LS Mean (SE) [1]: 1.0 (0.93)
- BACS Verbal Memory Cognition Domain, Adjusted Change from Baseline to Week 6, LS Mean (SE) [1]: 0.6 (1.04)
- BACS Verbal Memory Cognition Domain, Adjusted Change from Baseline to Week 12, LS Mean (SE) [1]: 1.9 (1.13)
- BACS Working Memory Cognition Domain, Adjusted Change from Baseline to Week 6, LS Mean (SE) [1]: 0.0 (0.92)
- BACS Working Memory Cognition Domain, Adjusted Change from Baseline to Week 12, LS Mean (SE) [1]: 0.9 (1.06)
- BACS composite score, 12-week LS mean change from baseline (50 mg once daily, placebo 2.3): 4.6
- BACS Composite Score, Change from Baseline to Week 6, Mean (SD) [2]: 1.7 (5.81)
- BACS Composite Score, Change from Baseline to Week 6, Median [2]: 2.0
- BACS Composite Score, Change from Baseline to Week 12, Mean (SD) [2]: 3.8 (5.91)
- BACS Composite Score, Change from Baseline to Week 12, Median [2]: 3.0
- BACS Composite Score, Week 6, Mean (SD) [2]: 35.4 (14.53)
- BACS Composite Score, Week 6, Median [2]: 34.0
- BACS Composite Score, Week 12, Mean (SD) [2]: 37.7 (13.30)
- BACS Composite Score, Week 12, Median [2]: 37.5
- BACS Motor Speed Cognition Domain, Change from Baseline to Week 6, Mean (SD) [2]: 1.7 (5.73)
- BACS Motor Speed Cognition Domain, Change from Baseline to Week 6, Median [2]: 1.0
- BACS Motor Speed Cognition Domain, Change from Baseline to Week 12, Mean (SD) [2]: 2.6 (6.80)
- BACS Motor Speed Cognition Domain, Change from Baseline to Week 12, Median [2]: 1.0
- BACS Motor Speed Cognition Domain, Week 6, Mean (SD) [2]: 40.6 (13.61)
- BACS Motor Speed Cognition Domain, Week 6, Median [2]: 40.0
- BACS Motor Speed Cognition Domain, Week 12, Mean (SD) [2]: 42.0 (12.93)
- BACS Motor Speed Cognition Domain, Week 12, Median [2]: 41.5
- BACS Verbal Memory Cognition Domain, Change from Baseline to Week 6, Mean (SD) [2]: 1.6 (7.40)
- BACS Verbal Memory Cognition Domain, Change from Baseline to Week 6, Median [2]: 0.0
- BACS Verbal Memory Cognition Domain, Change from Baseline to Week 12, Mean (SD) [2]: 3.2 (7.87)
- BACS Verbal Memory Cognition Domain, Change from Baseline to Week 12, Median [2]: 4.0
- BACS Verbal Memory Cognition Domain, Week 6, Mean (SD) [2]: 41.7 (11.59)
- BACS Verbal Memory Cognition Domain, Week 6, Median [2]: 44.5
- BACS Verbal Memory Cognition Domain, Week 12, Mean (SD) [2]: 42.9 (12.41)
- BACS Verbal Memory Cognition Domain, Week 12, Median [2]: 43.5
- BACS Working Memory Cognition Domain, Change from Baseline to Week 6, Mean (SD) [2]: 1.0 (6.60)
- BACS Working Memory Cognition Domain, Change from Baseline to Week 6, Median [2]: 0.0
- BACS Working Memory Cognition Domain, Change from Baseline to Week 12, Mean (SD) [2]: 2.1 (6.61)
- BACS Working Memory Cognition Domain, Change from Baseline to Week 12, Median [2]: 1.0
- BACS Working Memory Cognition Domain, Week 6, Mean (SD) [2]: 40.8 (14.10)
- BACS Working Memory Cognition Domain, Week 6, Median [2]: 42.0
- BACS Working Memory Cognition Domain, Week 12, Mean (SD) [2]: 42.0 (13.95)
- BACS Working Memory Cognition Domain, Week 12, Median [2]: 42.5
- BACS Attention Cognition Domain, Change from Baseline to Week 6, Mean (SD) (50 mg, Week 6): 0.9 (7.74)
- BACS Attention Cognition Domain, Change from Baseline to Week 6, Median (50 mg, Week 6): 0.0
- BACS Attention Cognition Domain, Week 6, Mean (SD) (50 mg, Week 6): 36.0 (14.78)
- BACS Attention Cognition Domain, Week 6, Median (50 mg, Week 6): 34.0
- BACS Executive Functions Cognition Domain, Change from Baseline to Week 6, Mean (SD) (50 mg, Week 6): 1.6 (10.55)
- BACS Executive Functions Cognition Domain, Change from Baseline to Week 6, Median (50 mg, Week 6): 2.0
- BACS Executive Functions Cognition Domain, Week 6, Mean (SD) (50 mg, Week 6): 44.9 (11.66)
- BACS Executive Functions Cognition Domain, Week 6, Median (50 mg, Week 6): 48.5
- BACS Verbal Fluency Cognition Domain, Change from Baseline to Week 6, Mean (SD) (50 mg, Week 6): −0.2 (5.57)
- BACS Verbal Fluency Cognition Domain, Change from Baseline to Week 6, Median (50 mg, Week 6): 0.0
- BACS Verbal Fluency Cognition Domain, Week 6, Mean (SD) (50 mg, Week 6): 39.9 (10.86)
- BACS Verbal Fluency Cognition Domain, Week 6, Median (50 mg, Week 6): 38.0
- BACS Attention Cognition Domain, Adjusted Change from Baseline to Week 6, LS Mean (SE) (50 mg, Week 6, MMRM): 1.0 (0.90)
